Data on 10 compounds can be found in ChEMBL document CHEMBL5154831 (J Med Chem, 2022).

≈ marks a conversion by molar mass, not a printed value.

Series [1] in a line: Toxicity in wild type mouse assessed as effect on kidney size. As to conditions: in vivo.
The nature of series [2]: Tmax in C57BL/6 mouse at 2 mg/kg, sc by LC-MS analysis. The class given is ADME, organism-based. As to conditions: in vivo.
The nature of series [3]: AUC (0 to t) in C57BL/6 mouse at 2 mg/kg, sc by LC-MS analysis. It counts as ADME, organism-based. Set-up: dose 2 mg/kg, route sc. To be noted: in vivo.
A short description of series [4]: Elimination rate constant in C57BL/6 mouse at 2 mg/kg, sc by LC-MS analysis. As to conditions: in vivo. The class given is ADME, organism-based.
Series [5] can be described thus: Equilibrium solubility of compound in water incubated for 24 hrs by UV-spectroscopy method. It counts as physicochemical.
The nature of series [6]: Half life in C57BL/6 mouse at 2 mg/kg, sc by LC-MS analysis. As to conditions: in vivo. The class given is ADME, organism-based.
Series [7] can be described thus: Toxicity in wild type mouse assessed as effect on body weight. To be noted: in vivo.
The nature of series [8]: Cmax in C57BL/6 mouse at 2 mg/kg, sc by LC-MS analysis. The class given is ADME, organism-based. Set-up: dose 2 mg/kg, route sc. As to conditions: in vivo.
The next series addresses Vasopressin V2 receptor (Homo sapiens, UniProt P30518). The series can be described thus: Displacement of conivaptan-red from SNAP-tagged V2 receptor (unknown origin) expressed in HEK293 cells assessed as inhibition constant measured after 2 hrs by HTRF assay. The class given is cell-based.
Series [9] is described as follows: Toxicity in wild type mouse assessed as effect on body weight at 2 mg/kg. The class given is organism-based. To be noted: in vivo.
The target in series [10] is Vasopressin V2 receptor (Rattus norvegicus) (UniProt Q00788). The series can be described thus: Ex vivo receptor occupancy at V2R in isolated perfused Sprague-Dawley rat kidney assessed as dissociation half life at 0.1 uM incubated for 30 mins by LC-MS analysis. The class given is functional, tissue-based.
Chain of Vasopressin V2 receptor (Rattus norvegicus) (Q00788 whole entry, the tested form may be a part): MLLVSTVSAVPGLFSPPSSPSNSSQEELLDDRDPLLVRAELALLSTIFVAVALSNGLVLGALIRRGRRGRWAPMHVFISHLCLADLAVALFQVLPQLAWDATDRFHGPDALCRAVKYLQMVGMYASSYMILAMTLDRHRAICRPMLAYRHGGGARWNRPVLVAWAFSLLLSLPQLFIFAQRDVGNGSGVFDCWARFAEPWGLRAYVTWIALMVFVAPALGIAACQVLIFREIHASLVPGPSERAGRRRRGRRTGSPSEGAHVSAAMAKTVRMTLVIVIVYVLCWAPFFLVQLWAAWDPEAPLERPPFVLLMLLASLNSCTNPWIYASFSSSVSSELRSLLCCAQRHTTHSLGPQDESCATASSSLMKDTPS

Chain of Vasopressin V2 receptor (P30518 whole entry): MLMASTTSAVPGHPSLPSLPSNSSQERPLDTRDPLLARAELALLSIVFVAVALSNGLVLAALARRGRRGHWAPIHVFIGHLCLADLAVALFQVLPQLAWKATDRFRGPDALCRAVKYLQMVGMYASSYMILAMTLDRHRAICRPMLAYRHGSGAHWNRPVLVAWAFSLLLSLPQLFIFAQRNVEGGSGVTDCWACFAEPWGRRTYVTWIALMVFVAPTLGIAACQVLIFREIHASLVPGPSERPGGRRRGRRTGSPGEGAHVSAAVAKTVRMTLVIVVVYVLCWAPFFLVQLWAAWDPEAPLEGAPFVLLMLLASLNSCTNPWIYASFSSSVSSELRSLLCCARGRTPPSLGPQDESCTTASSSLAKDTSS

Take `Cc1ccccc1C(=O)Nc1ccc(C(=O)N2CCCC(NCCC(=O)N3CCOCC3)c3cc(Cl)ccc32)c(C)c1` (stereo not drawn): the Activity entry in [1] and in [7] was “Non-Toxic” in each case. For the same compound, the Tmax in [2] turned out to be 8.4 min. For the same compound, the AUC(0-t) in series [3] was found to be 0.45 µg·h/mL. Moreover, in series [4], the k el is 0.000667 s⁻¹. For the same compound, the thermodynamic solubility at 24 h in series [5] was determined as 2.3 µg/mL (≈ 3.9 µM). The same compound showed a half-life in [6] of 17.4 min. Also, in [8], the highest concentration (Cmax) turned out to be 0.783 µg/mL.
As for `CCN(CC)CCCNC1CCCN(C(=O)c2ccc(NC(=O)c3ccccc3C)cc2C)c2ccc(Cl)cc21` (stereo not drawn), the Activity result in series [1] and in series [7] was “Non-Toxic” throughout. Moreover, in series [2], the time to peak (Tmax) was 11.4 min. This compound had an AUC(0-t) in [3] of 0.527 µg·h/mL. Moreover, at Vasopressin V2 receptor, the inhibitory constant (Ki) was 0.031 µM. Besides, in [4], the k el is 8.33e-05 s⁻¹. The thermodynamic solubility at 24 h in series [5] was 2.3 µg/mL (≈ 4.1 µM). In series [6], this compound gave a half-life of 174 min. The compound also came in with a Cmax in series [8] of 0.426 µg/mL.
On to `Cc1ccccc1C(=O)Nc1ccc(C(=O)N2CCCC(NCCCN3CCCCC3)c3cc(Cl)ccc32)c(C)c1` (stereo not drawn), for which the Activity result in series [1] and in series [7] was “Non-Toxic” throughout. The Tmax in [2] came to 19.8 min. Also, in [3], the AUC(0-t) was 1.11 µg·h/mL. Besides, in series [4], the k el was 5e-05 s⁻¹. The compound also returned a solubility (thermodynamic) at 24 h in series [5] of 2.3 µg/mL (≈ 4.01 µM). In series [6], this compound had a half-life of 234 min. Moreover, the highest level in [8] (Cmax) was 0.419 µg/mL.
As to `Cc1ccccc1C(=O)Nc1ccc(C(=O)N2CCCC(NCCCN3CCN(C)CC3)c3cc(Cl)ccc32)c(C)c1` (stereo not drawn), the Activity result in series [1] and in series [7] was “Non-Toxic” each time. Besides, the time to peak (Tmax) in series [2] turned out to be 4.98 min. Besides, in series [3], the AUC(0-t) is 0.588 µg·h/mL. In addition, the k el in series [4] was 2.75e-05 s⁻¹. Further, the thermodynamic solubility at 24 h in [5] came out at 2.3 µg/mL (≈ 3.91 µM). Besides, the half-life in series [6] is 420 min. This compound also displayed a Cmax in series [8] of 0.518 µg/mL.
On to `Cc1ccccc1C(=O)Nc1ccc(C(=O)N2CCCC(NCCCN3CCOCC3)c3cc(Cl)ccc32)c(C)c1` (stereo not drawn), for which the Activity result in series [1], in [9] and in [7] was “Non-Toxic” throughout. The time of peak concentration (Tmax) in series [2] came out at 15 min. The AUC(0-t) in [3] was determined as 0.817 µg·h/mL. In addition, the k el in [4] was 4.72e-05 s⁻¹. In [5], the solubility (thermodynamic) at 24 h worked out at 2.3 µg/mL (≈ 4 µM). For the same compound, in series [6], the half-life is 258 min. In series [8], this compound displayed a Cmax of 0.453 µg/mL.
As to `Cc1ccccc1C(=O)Nc1ccc(C(=O)N2CCCC(O)c3cc(Cl)ccc32)c(C)c1` (stereo not drawn) [TOLVAPTAN], the Activity entry in series [1] and in series [7] was “Non-Toxic” throughout. In series [2], the time to peak (Tmax) was found to be 49.8 min. Further, the exposure AUC(0-t) in series [3] was 0.824 µg·h/mL. In addition, in series [10], the T1/2 was 23 min. Also, the k el in [4] was 4.72e-05 s⁻¹. The compound further yielded a solubility (thermodynamic) at 24 h in series [5] of 2.3 µg/mL (≈ 5.12 µM). The compound also showed a half-life in series [6] of 246 min. In series [8], this compound yielded a Cmax of 0.394 µg/mL.
Turning to `Cc1ccccc1C(=O)Nc1ccc(C(=O)N2CCCC(NCCCCCN3CCOCC3)c3cc(Cl)ccc32)c(C)c1` (stereo not drawn), the Activity result in series [1] and in series [7] was “Non-Toxic” in each case. Moreover, the Tmax in [2] worked out at 8.4 min. This compound came in with an area under the curve AUC(0-t) in [3] of 0.45 µg·h/mL. Also, the k el in [4] was 2.58e-05 s⁻¹. The solubility (thermodynamic) at 24 h in [5] came out at 2.3 µg/mL (≈ 3.81 µM). For the same compound, the half-life in series [6] was 450 min. In series [8], this compound yielded a Cmax of 0.157 µg/mL.
For `Cc1ccccc1C(=O)Nc1ccc(C(=O)N2CCCC(NCCCc3ccncc3)c3cc(Cl)ccc32)c(C)c1` (stereo not drawn), the Activity entry in [1] and in [7] was “Non-Toxic” throughout. Further, the Tmax in [2] amounted to 16.7 min. The AUC(0-t) in series [3] was determined as 0.565 µg·h/mL. This compound also had a k el in series [4] of 0.000361 s⁻¹. For the same compound, the thermodynamic solubility at 24 h in series [5] was found to be 2.3 µg/mL (≈ 4.06 µM). In series [6], the half-life is 32 min. The compound further yielded a Cmax in series [8] of 0.36 µg/mL.
On to `Cc1ccccc1C(=O)Nc1ccc(C(=O)N2CCCC(NCCN3CCOCC3)c3cc(Cl)ccc32)c(C)c1` (stereo not drawn), for which the Activity entry in series [1] and in series [7] was “Non-Toxic” in each case. The Tmax in series [2] was 4.98 min. The exposure AUC(0-t) in series [3] was 0.544 µg·h/mL. In series [4], this compound showed a k el of 0.000417 s⁻¹. This compound gave a solubility (thermodynamic) at 24 h in [5] of 2.3 µg/mL (≈ 4.1 µM). In series [6], this compound showed a half-life of 28.2 min. Moreover, the Cmax in series [8] came out at 0.679 µg/mL.
For `Cc1ccccc1C(=O)Nc1ccc(C(=O)N2CCCC(NCCCCN3CCOCC3)c3cc(Cl)ccc32)c(C)c1` (stereo not drawn), the Activity result in series [1] and in series [7] was “Non-Toxic” in each case. Further, the Tmax in [2] turned out to be 4.98 min. In addition, the exposure AUC(0-t) in series [3] amounted to 0.514 µg·h/mL. For the same compound, the k el in [4] was 3.89e-05 s⁻¹. In series [5], this compound had a thermodynamic solubility at 24 h of 2.3 µg/mL (≈ 3.9 µM). Besides, the half-life in series [6] was 324 min. In series [8], this compound registered a Cmax of 0.365 µg/mL.
